{"source": "patent US20100204097A1", "about": "“THERAPEUTIC METHODS USING A THYMUS PEPTIDE” (IMMUNE SYSTEM KEY LTD., priority 2006, published 2010)", "key": {"mouse spleenocytes": {"tested_on": "mouse spleenocytes", "test": "Expression of VEGFA, VEGFR1 and IL-10 in mouse spleenocytes", "assay_type": "cell-based", "conditions": "increasing concentrations of T101", "excerpt": "HPRT was included as a negative control.\nMouse spleenocytes were challenged without or with increasing concentrations of T101. VEGFA, VEGFR1 and IL-10 expression were compared. VEGFA is a major proangiogenic cytokine, and VEGFR1 is a receptor for VEGFA. HPRT was included as a negative control."}, "[1]": {"test": "Blood cholesterol level in mice after 3 weeks of treatment", "assay_type": "in vivo", "conditions": "female Balb/C mice, 50 μg/Kg twice a day for 3 weeks, pooled blood, versus saline", "experimental": "(§1) Two groups of 7 weeks old female Balb/C mice were injected twice a day for 3 weeks with either T101 (50 μg/Kg) (8 mice), or with saline (control) (7 mice). After 3 weeks, blood was collected from the mice and pooled, and the cholesterol level (mg/DL) was measured."}, "U937 cells [2]": {"tested_on": "U937 cells", "test": "Western blot for the 85 kDa cleavage product of PARP in U937 cells", "assay_type": "cell-based, human", "experimental": "U937 cells were treated as in FIG. 1 and loaded on SDS-PAGE, except that the gel was treated with antibody against the 85 kDa cleavage product of PARP, which is produced by the cleavage of PARP by caspase 3, and is active in apoptosis.\nThe lanes of the gel were loaded with lysed cells which had been incubated with the following concentrations of T101: A —100 ng/ml; B —10 ng/ml; C —1 ng/ml; D —100 pg/ml; E —10 pg/ml; F —0 pg/ml (control). The bands show the location of the 85 kDa cleavage product of PARP.\nU937 cells were treated as in FIG. 2 except that some of the cells were not treated with FCS, i.e. not activated. The lysed cells were loaded on SDS-PAGE, which was treated with antibody against the 85 kDa cleavage product of PARP.\nThe lanes of the gel were loaded with lysed cells, as follows: A—activated cells+0 ng/ml T101 (control) [the result with nonactivated cells was similar]; B—nonactivated cells+100 ng/ml T101; C—activated cells+100 ng/ml T101."}, "[3]": {"tested_on": "human breast cancer cells", "test": "Induction of apoptosis in human breast cancer cells", "assay_type": "cell-based", "conditions": "not shown", "excerpt": "(§2) It may be seen in FIG. 9 that in untreated cells (time 0), a significant level of FLIP but very little caspase 8 are observed. […] It is seen that the changes in FLIP and caspase 8 are time-sensitive, with the greatest changes seen at the short time points (10′), after which their levels gradually return to baseline. Similar results were obtained with other cell lines as well."}, "human glioblastoma cells": {"tested_on": "human glioblastoma cells", "test": "Induction of apoptosis in human glioblastoma cells", "assay_type": "cell-based", "conditions": "not shown", "excerpt": "as §2"}, "U937 cells [4]": {"tested_on": "U937 cells", "test": "Time course of FLIP and caspase 8 in T1/ST2 immuno-precipitated from U937 cells", "assay_type": "cell-based, human", "experimental": "The samples were obtained from T1/ST2 immuno-precipitated from U937 cells at different time points after incubation with T101. The antibodies used to detect caspase 8 were against the active cleaved species;\nIn this example, the time course of the effect of T101 on T1/ST2 receptor-related apoptosis was investigated by following the degradation of FLIP and activation of caspase 8. U937 cells were incubated with T101, and at different time points T1/ST2 was immuno-precipitated from the cells and analyzed by Western blot for the presence of caspase 8 and FLIP."}, "[5]": {"test": "Blood liver enzyme levels (AST, ALP, ALT) in mice after 3 weeks of treatment", "assay_type": "in vivo", "conditions": "female Balb/C mice, 50 μg/Kg twice a day for 3 weeks, versus saline", "experimental": "as §1\nLiver enzymes levels (μg/L) were measured in the blood of the mice of Example 7. The enzymes measured were aspartate aminotransferase (AST), alkaline phosphatase (ALP) and alanine aminotransferase (ALT)."}, "[6]": {"tested_on": "human lung carcinoma cells", "test": "Induction of apoptosis in human lung carcinoma cells", "assay_type": "cell-based", "conditions": "not shown", "excerpt": "as §2"}, "U937 cells [7]": {"tested_on": "U937 cells", "test": "Western blot for Bcl-2 and full length caspase 9 in U937 cells", "assay_type": "cell-based, human", "experimental": "(§3) In FIG. 10, it can be seen that T101 causes an increase in both JNK and MAPK phosphorylation 30 min after T101 application, while no change in the IκB protein level was detected. No change of IκB levels was detected at shorter time points as well. Therefore, it is assumed that the JNK pathway and MAP kinase pathway are activated by T101, while NF-κB remains unactivated. However, not only the caspase 8 pathway is activated upon T1/ST2 activation by T101, but also the caspase 9 dependent cascade is stimulated."}, "[8]": {"tested_on": "murine mammary gland carcinoma cells", "test": "Induction of apoptosis in murine mammary gland carcinoma cells", "assay_type": "cell-based", "conditions": "not shown", "excerpt": "as §2"}, "[9]": {"tested_on": "mouse N2A neublastoma cells", "test": "Induction of apoptosis in mouse N2A neublastoma cells", "assay_type": "cell-based", "conditions": "not shown", "excerpt": "as §2"}, "U937 cells [10]": {"tested_on": "U937 cells", "test": "Western blot for phosphorylated JNK, phosphorylated MAPK p38 and IκB in U937 cells", "assay_type": "cell-based, human", "experimental": "The U937 cells were incubated for 30 min. with (+) or without (−) T101;\nIn order to determine the effect of T101 on various apoptotic signaling pathways, JNK and MAP kinase phosphorylation were measured.\nas §3"}, "U937 cells [11]": {"tested_on": "U937 cells", "test": "Western blot for activated caspase 3 in FCS-activated U937 cells", "assay_type": "cell-based, human", "conditions": "U937 cells activated with 10% FCS, 18 hr, 10 pg/ml to 100 ng/ml T101", "experimental": "10^6 U937 cells, a human leukemic monoblast cell line, were incubated for 18 hr at 37° C. in RPMI buffer+10% fetal calf serum (FCS) with different concentrations of T101. The FCS causes activation of the U937 cells. The cells were then lysed in RIPA buffer in the presence of protease inhibitors, and run on SDS-PAGE. A Western blot of the gel was performed with anti-caspase 3 antibody.\nThe lanes of the gel were loaded with lysed cells which had been incubated with the following concentrations of T101: A,B—0 pg/ml (control); C—10 pg/ml; D—100 pg/ml; E—1 ng/ml; F—10 ng/ml; G—100 ng/ml.\nThus, T101 can be expected to cause apoptosis in activated monocytes, thereby reducing the possibility of development of a disease associated with activated monocytes, such as atherosclerosis."}, "murine spleenocytes [12]": {"tested_on": "murine spleenocytes", "test": "Activated caspase 6 in spleenocytes of mice injected ip with LPS and/or T101", "assay_type": "in vivo", "conditions": "Balb/c mice"}, "T1/ST2 receptor": {"tested_on": "T1/ST2 receptor", "test": "Streptavidin bead pull-down of FC-T1/ST2 by biotin-labeled T101, Western blot", "assay_type": "binding", "conditions": "T101-bio pre-incubated with FC-T1/ST2 45 min at 4° C., Streptavidin beads", "experimental": "An antibody to the T1/ST2 receptor (FC-T1/ST2), and T101 labeled with biotin (T101-bio) were prepared. Streptavidin beads were incubated for 1 hr. at 4° C. with each of the following: A —T101-bio alone; B—Fc-T1/ST2 alone; C—FC-T1/ST2 pre-incubated with T101-bio for 45 min. at 4° C. After incubation, the beads were spun down and washed 3 times with PBS+0.1% Tween 20. The beads were then loaded on SDS-PAGE and a Western blot was performed using antibody against T1/ST2."}, "murine spleenocytes [13]": {"tested_on": "murine spleenocytes", "test": "Activated caspase 3 in spleenocytes of mice injected ip with LPS and/or T101", "assay_type": "in vivo", "conditions": "Balb/c mice", "experimental": "Four groups of 3 mice each (male Balb/c, 6 wks old, approx. 20 gr.) were injected ip with the following: A—saline (control); B—50 μg LPS (induces activation of monocytes); C —50 μg LPS+1 μg T101; D—1 μg T101. After 24 hours the mice were sacrificed and the spleens were removed. The spleens of the mice of each group were combined and lysed in RIPA buffer in the presence of protease inhibitors, and 30×10^6 lysed spleenocytes from each group were run on SDS-PAGE. A Western blot of the gel was performed with antibody against activated caspase 3."}, "[14]": {"conditions": "T1/ST2 immuno-precipitate from U937 cells, greatest change at 10′"}, "[15]": {"conditions": "1 μg T101 without LPS, 24 hours"}}}
{"substance": "T101: human thymus peptide, 51 amino acids: LHLWLSGEPVQSSGTKDMRSKSDSKRVSDKQLISKAVWWTFFLPSTLWERK (listed as Homo sapiens)", "values": [{"measurement": "expression of IL-10", "setting": "mouse spleenocytes", "value": "enhanced"}, {"measurement": "expression of VEGFA", "setting": "mouse spleenocytes", "value": "inhibits the expression"}, {"measurement": "expression of VEGFR1", "setting": "mouse spleenocytes", "value": "inhibits the expression"}, {"measurement": "cholesterol level in the blood", "setting": "[1]", "value": "significant decrease"}, {"measurement": "cleavage of PARP, activated versus nonactivated monocytes", "setting": "U937 cells [2]; U937 cells with or without FCS, 100 ng/ml T101", "value": "induced the cleavage of PARP only in the activated monocytes"}, {"measurement": "amount of the 85 kDa cleavage product of PARP", "setting": "U937 cells [2]; activated U937 cells, 10 pg/ml T101", "value": "significantly increased"}, {"measurement": "induction of apoptosis", "setting": "[3]", "value": "able to induce apoptosis"}, {"measurement": "induction of apoptosis", "setting": "human glioblastoma cells", "value": "able to induce apoptosis"}, {"measurement": "active caspase 8", "setting": "U937 cells [4]; [14]", "value": "concomitant increase of active caspase 8"}, {"measurement": "level of FLIP", "setting": "U937 cells [4]; [14]", "value": "level of FLIP decreases"}, {"measurement": "inactive caspase 8", "setting": "U937 cells [4]; U937 cells, not shown", "value": "decrease of the inactive caspase 8"}, {"measurement": "liver enzyme levels in the blood (AST, ALP, ALT)", "setting": "[5]", "value": "significant decrease"}, {"measurement": "induction of apoptosis", "setting": "[6]", "value": "able to induce apoptosis"}, {"measurement": "Bcl-2 protein", "setting": "U937 cells [7]", "value": "very pronounced degradation"}, {"measurement": "full-length caspase 9 protein", "setting": "U937 cells [7]", "value": "cleavage of the full-length caspase 9 protein"}, {"measurement": "induction of apoptosis", "setting": "[8]", "value": "able to induce apoptosis"}, {"measurement": "induction of apoptosis", "setting": "[9]", "value": "able to induce apoptosis"}, {"measurement": "JNK phosphorylation", "setting": "U937 cells [10]; 30 min after T101 application", "value": "increase"}, {"measurement": "MAPK phosphorylation", "setting": "U937 cells [10]; 30 min after T101 application", "value": "increase"}, {"measurement": "IκB protein level", "setting": "U937 cells [10]; 30 min and shorter time points", "value": "no change"}, {"measurement": "activated caspase 3 (Western blot)", "setting": "U937 cells [11]", "value": "increased activated caspase 3"}, {"measurement": "caspase 6 in nonactivated spleenocytes", "setting": "murine spleenocytes [12]; [15]", "value": "inhibiting caspase 6"}, {"measurement": "caspase 6 in activated spleenocytes", "setting": "murine spleenocytes [12]; 50 μg LPS+1 μg T101, 24 hours", "value": "induces caspase 6"}, {"measurement": "binding to the T1/ST2 receptor", "setting": "T1/ST2 receptor", "value": "binds to the T1/ST2 receptor"}, {"measurement": "activated caspase 3 in spleenocytes", "setting": "murine spleenocytes [13]; [15]", "value": "inhibition of activated caspase 3"}, {"measurement": "activated caspase 3 in spleenocytes", "setting": "murine spleenocytes [13]; 50 μg LPS+1 μg T101, 24 hours, versus control", "value": "increased amount of activated caspase 3"}]}
